Assay results: the NIST ThermoML archive (doi:10.1016/j.tca.2015.11.010)
± gives the expanded uncertainty stated by the source.

Assay: activity coefficient (dimensionless); of the first substance listed, at infinite dilution; xn = mol fraction of the nth substance listed
Details: 298.15 K; 238 kPa; Liquid; Chromatography; x1 = 0

| Compound | activity coefficient |
| --- | --- |
| Cc1ccccc1C [1,2-dimethylbenzene] + CNC=O | 9.8 ± 1.1 |
| Cc1cccc(C)c1 [1,3-dimethylbenzene] + CNC=O | 10.8 ± 0.7 |
| Cc1ccc(C)cc1 [1,4-dimethylbenzene] + CNC=O | 10.4 ± 0.9 |
| C=CCCCCC=C [1,7-octadiene] + CNC=O | 23 ± 2.1 |
| Cc1ccc(C(C)C)cc1 [1-(1-methylethyl)-4-methylbenzene] + CNC=O | 22.3 ± 2.1 |
| C=CC1CC=CCC1 (centres undefined) [4-ethenylcyclohexene] + CNC=O | 16.6 ± 1.9 |
| c1ccccc1 [benzene] + CNC=O | 4.8 ± 0.4 |
| Brc1ccccc1 [bromobenzene] + CNC=O | 6.3 ± 0.5 |
| Clc1ccccc1 [chlorobenzene] + CNC=O | 5.2 ± 0.6 |
| C1CCCCCCC1 [cyclooctane] + CNC=O | 42.3 ± 3.3 |
| CCCCCCCCCC [decane] + CNC=O | 194 ± 9.1 |
| Fc1ccccc1 [fluorobenzene] + CNC=O | 4 ± 0.3 |
| CCCCCCC [heptane] + CNC=O | 60.5 ± 4.8 |
| CCCCCC [hexane] + CNC=O | 38.6 ± 7.5 |
| c1ccc2ccccc2c1 [naphthalene] + CNC=O | 26.7 ± 3.7 |
| CCCCCCCCC [nonane] + CNC=O | 122 ± 6.3 |
| CCCCCCCC [octane] + CNC=O | 83.9 ± 4.5 |
| Cc1ccccc1 [toluene] + CNC=O | 7 ± 0.6 |
| CCCCCCCCCCC [undecane] + CNC=O | 318 ± 32 |
